What was measured:
BRD4-BDI = BRD4-BDI (Homo sapiens, UniProt O60885); assay: HTRF peptide displacement; assay type: binding; details: 6 h, room temperature
NB4 = assay: cells; set-up: species or system MOLM-14, CCRF-CEM, K-562; details: Homo sapiens, NB-4, 72 h, read-out: Cells viability EC50 NB4 (µM)
TRIM33 = target: T1, TRIM33 (Homo sapiens, UniProt Q9UPN9); assay: BROMOscan competition binding; details: single dose 1 μM; unreliable (may be per cent of control, direction unclear)
T1 sequence (Q9UPN9 882-1087 limits assumed): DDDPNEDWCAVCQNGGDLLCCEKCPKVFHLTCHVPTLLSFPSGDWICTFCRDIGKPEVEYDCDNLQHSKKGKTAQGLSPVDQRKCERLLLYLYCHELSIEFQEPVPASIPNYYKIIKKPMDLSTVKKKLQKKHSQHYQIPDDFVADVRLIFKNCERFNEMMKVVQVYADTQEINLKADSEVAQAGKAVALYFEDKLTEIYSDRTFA

K-562 = assay: cells; set-up: species or system MOLM-14, CCRF-CEM, NB4; details: Homo sapiens, K562, 72 h, read-out: Cells viability EC50 K-562 (µM)
CECR2 = CECR2 (Homo sapiens, UniProt Q9BXF3); assay: BROMOscan competition binding; details: single dose 1 μM; unreliable (may be per cent of control, direction unclear)

Row | Compound | IC50 (BRD4-BDI) | also measured
1 | CC(=O)N1CCc2c(sc3nc(SCC(=O)Nc4cc(Cl)ccc4C)n(Cc4ccco4)c(=O)c23)C1 [compound 1] | 4 ± 0.5 µM | 
2 | COc1cc(C(=O)C(=Cc2ccncc2)c2nc3ccccc3o2)cc(OC)c1OC [compound 5] | 4.3 ± 0.2 µM | 
3 | O=C1c2ccc(Oc3cccc(Oc4ccc5c(c4)C(=O)N(c4ccc(O)cc4)C5=O)c3)cc2C(=O)N1c1ccc(O)cc1 [compound 7] | 1.1 ± 0.1 µM | 
4 | CC(=O)N1CCc2c(sc3nc(SCC(=O)Nc4cccnc4C)n(Cc4ccco4)c(=O)c23)C1 [compound 34, 2-((7-Acetyl-3-(furan-2-ylmethyl)-4-oxo-3,4,5,6,7,8-hexahydropyrido[4’,3’:4,5]thieno[2,3-d]pyrimidin-2-yl)thio)-N-(2-methylpyridin-3-yl)acetamide] | 1.3 µM | EC50 (NB4): > 25 µM; % inhibition at 1 μM (TRIM33): 52%; EC50 (K-562): > 25 µM; % inhibition at 1 μM (CECR2): 54%

Further lines, with some results ahead:

Row | IC50 (BRD4-BDI) | Compound | also measured
5 | 11 ± 0.9 µM | Cc1ccc(-c2c(C)noc2C)cc1S(=O)(=O)Nc1cccc(C)c1C [compound 2] | 
6 | 9.3 ± 0.8 µM | CCc1cccc(C)c1NS(=O)(=O)c1cc(-c2c(C)noc2C)ccc1C [compound 3] | 
7 | 7.4 ± 0.5 µM | Cc1cc(F)ccc1NS(=O)(=O)c1cc(-c2c(C)noc2C)ccc1C [compound 4] | 

Source: doi:10.1101/2021.12.13.472388v3 (biorxiv, 2022)
